Assay results reported in US9781933B2, “Tetrazolinone compound and use thereof” (Sumitomo Chemical Company, Limited, priority 2013, dated 2017).

Test system: wheat rust fungus (Puccinia recondita)
Experiment: Comparative Test Example: wheat rust control at 50 ppm
Format: in vivo
Settings: 50 ppm foliar spray; wheat (SHIROGANE); inoculated 5 days after spraying
Description: After spraying, the plant was air-dried so as to dry the dilution on the surface of the leaves. […] After the inoculation, the plant was placed at 23° C. for one day under dark and high humidity condition, and cultivated, under illumination at 20° C. for 8 days, and then the area of lesion was investigated.

Compound: Cc1cccc(-n2nnn(C)c2=O)c1COc1ccn(-c2ccc(F)cn2)n1 [compound 40]
- area of lesion relative to that on an untreated plant: ≤ 30%

Compound: Cn1nnn(-c2ccccc2COc2ccn(-c3ccc(F)cc3)n2)c1=O [control compound, 1-(2-{[1-(4-fluorophenyl)-1H-pyrazol-3-yl]oxymethyl}-phenyl)-4-methyl-1,4-dihydrotetrazol-5-one]
- area of lesion relative to that on an untreated plant: ≥ 70%
